The molecules below were run against T1, cathepsin S (Homo sapiens, UniProt P25774) (assay: Cathepsin S enzyme inhibition in vitro (kinetic fluorescence assay)). Conditions: Ki(cathepsin S)/Ki(calpain) ratio.
T1 construct: purchased Calbiochem 219343; host or cells: E. coli
T1 sequence (P25774 115-331): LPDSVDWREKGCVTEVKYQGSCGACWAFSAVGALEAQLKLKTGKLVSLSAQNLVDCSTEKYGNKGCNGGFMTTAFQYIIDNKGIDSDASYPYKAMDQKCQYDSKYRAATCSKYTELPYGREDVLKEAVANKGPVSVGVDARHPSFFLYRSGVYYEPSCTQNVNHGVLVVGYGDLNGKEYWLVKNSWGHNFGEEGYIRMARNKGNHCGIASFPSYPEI
Type: biochemical
Method: Testing for blockade of the corresponding enzymic activities was carried out by means of kinetic fluorescence assays (excitation 390 nm, emission 460 nm).
Apparent Ki values were calculated from the experimentally determined IC50 values by the Cheng-Prussoff relation assuming a reversible competitive enzyme inhibition. The Km values of the substrates used under the assay conditions indicated above were: 90 μM (Z-Phe-Arg-AMC, cathepsin B), 10 μM (Z-Gly-Pro-Arg-AMC, cathepsin K), 2 μM (Z-Phe-Arg-AMC, cathepsin L), and 30 μM (Z-Val-Val-Arg-AMC, cathepsin S).
The indicated Ki values are averages of the inhibition constants calculated on the basis of 2 to 4 independent dose-effect plots.
• 1. Calpain I: • 20 nM calpain-I—isolated from human erythrocytes (Calbiochem #208713), 100 μM Suc-Leu-Tyr-AMC (Bachem #1-1355) as substrate in buffer with 62 mM imidazole, 0.3 mM CaCl2, 0.10% CHAPS, 0.05% BSA, 1 mM DTT at pH 7.3 and room temperature. • 2. Cathepsin B: • 0.25 nM cathepsin B—isolated from human liver (Calbiochem #219362), 100 μM Z-Phe-Arg-AMC (Bachem #1-1160) as substrate 50 mM MES, 2 mM EDTA, 0.05% Brij 35, 2.5 mM L-cysteine, pH 6.0, room temperature. • 3. Cathepsin K: • 3 nM cathepsin K—activated from recombinant human procathepsin K from E. coli (Calbiochem #342001), 10 μM Z-Gly-Pro-Arg-AMC (Biomol #P-142) as substrate in 50 mM MES, 2 mM EDTA, 0.05% Brij 35, 2.5 mM L-cysteine, pH 6.0, room temperature. • 4. Cathepsin L: • 1 nM cathepsin L—isolated from human liver (Calbiochem #219402), 2 μM Z-Phe-Arg-AMC (Bachem #1-1160) as substrate in 50 mM MES, 2 mM EDTA, 0.05% Brij 35, 2.5 mM L-cysteine, pH 6.0, room temperature. • 5. Cathepsin S: • 0.5 nM recombinant human cathepsin S from E. coli (Calbiochem #219343), 20 μM Z-Val-Val-Arg-AMC (Bachem #1-1540) as substrate in 50 mM MES, 2 mM EDTA, 0.05% Brij 35, 2.5 mM L-cysteine, pH 6.0, room temperature.
For `CCCCC(NC(=O)c1cccnc1-n1ccc(-c2ccccc2)n1)C(=O)C(N)=O` (stereo not drawn) [Example 6, N-{1-[Amino(oxo)acetyl]pentyl}-2-(3-phenyl-1H-pyrazol-1-yl)nicotinamide], the “Sel cat. S” value was “+ (+ means 50≦Ki(cathepsin S)/Ki(calpain)<100)”. For `NC(=O)C(=O)C(Cc1ccccc1)NC(=O)c1cccnc1-n1cnc(-c2ccc(N3CCOCC3)cc2)c1` (stereo not drawn) [Example 14, N-(3-Amino-1-benzyl-2,3-dioxopropyl)-2-[4-(4-morpholin-4-ylphenyl)-1H-imidazol-1-yl]nicotinamide], the “Sel cat. S” value was “++ (++ means a Ki(cathepsin S)/Ki(calpain) ratio of ≧100)”. `CCN(CC)c1ccc(-c2ccn(-c3ncccc3C(=O)NC(Cc3ccccc3)C(=O)C(N)=O)n2)cc1` (stereo not drawn) [Example 42, N-(3-Amino-1-benzyl-2,3-dioxopropyl)-2-{3-[4-(diethylamino)phenyl]-1H-pyrazol-1-yl}nicotinamide] was tested, and the “Sel cat. S” value was “++ (++ means a Ki(cathepsin S)/Ki(calpain) ratio of ≧100)”. `CCN(CC)Cc1ccc(-c2ccn(-c3ncccc3C(=O)NC(Cc3ccccc3)C(=O)C(N)=O)n2)cc1.Cl` (stereo not drawn) [Example 43, N-(3-Amino-1-benzyl-2,3-dioxopropyl)-2-(3-{4-[(diethylamino)methyl]phenyl}-1H-pyrazol-1-yl)nicotinamide hydrochloride] was tested, and the “Sel cat. S” value was “++ (++ means a Ki(cathepsin S)/Ki(calpain) ratio of ≧100)”. `CCCCC(NC(=O)c1cccnc1-n1ccc(-c2ccc(CN(CC)CC)cc2)n1)C(=O)C(N)=O` (stereo not drawn) [Example 44, N-{1-[Amino(oxo)acetyl]pentyl}-2-(3-{4-[(diethylamino)methyl]phenyl}-1H-pyrazol-1-yl)nicotinamide] was tested, and the “Sel cat. S” value was “+ (+ means 50≦Ki(cathepsin S)/Ki(calpain)<100)”. For `CCCCC(NC(=O)c1cccnc1-n1ccc(-c2ccc(CN3CCOCC3)cc2)n1)C(=O)C(N)=O` (stereo not drawn) [Example 45, N-{1-[Amino(oxo)acetyl]pentyl}-2-{3-[4-(morpholin-4-ylmethyl)phenyl]-1H-pyrazol-1-yl}nicotinamide], the “Sel cat. S” value was “+ (+ means 50≦Ki(cathepsin S)/Ki(calpain)<100)”. For `NC(=O)C(=O)C(Cc1ccccc1)NC(=O)c1cccnc1-n1ccc(-c2ccc(CN3CCOCC3)cc2)n1` (stereo not drawn) [Example 46, N-(3-Amino-1-benzyl-2,3-dioxopropyl)-2-{3-[4-(morpholin-4-ylmethyl)phenyl]-1H-pyrazol-1-yl}nicotinamide], the “Sel cat. S” value was “++ (++ means a Ki(cathepsin S)/Ki(calpain) ratio of ≧100)”. `CCCCC(NC(=O)c1cccnc1-n1ccc(-c2ccc(N(CC)CC)cc2)n1)C(=O)C(N)=O` (stereo not drawn) [Example 47, N-{1-[Amino(oxo)acetyl]pentyl}-2-{3-[4-(diethylamino)phenyl]-1H-pyrazol-1-yl}nicotinamide] was tested, and the “Sel cat. S” value was “++ (++ means a Ki(cathepsin S)/Ki(calpain) ratio of ≧100)”. For `Cl.NC(=O)C(=O)C(Cc1ccccc1)NC(=O)c1cccnc1-n1ccc(-c2cccc(CN3CCOCC3)c2)n1` (stereo not drawn) [Example 52, N-(3-Amino-1-benzyl-2,3-dioxopropyl)-2-{3-[3-(morpholin-4-ylmethyl)phenyl]-1H-pyrazol-1-yl}nicotinamide hydrochloride], the “Sel cat. S” value was “++ (++ means a Ki(cathepsin S)/Ki(calpain) ratio of ≧100)”. `NC(=O)C(=O)C(Cc1ccccc1)NC(=O)c1cccnc1-n1ccc(-c2ccncc2)n1` (stereo not drawn) [Example 65, N-(3-Amino-1-benzyl-2,3-dioxopropyl)-2-(3-pyridin-4-yl-1H-pyrazol-1-yl)nicotinamide] was tested, and the “Sel cat. S” value was “++ (++ means a Ki(cathepsin S)/Ki(calpain) ratio of ≧100)”. For `NC(=O)C(=O)C(Cc1ccccc1)NC(=O)c1cccnc1-n1ccc(-c2ccc(-n3ccnc3)cc2)n1` (stereo not drawn) [Example 101, N-[3-Amino-2,3-dioxo-1-(phenylmethyl)propyl]-2-{3-[4-(1H-imidazol-1-yl)phenyl]-1H-pyrazol-1-yl}pyridine-3-carboxamide], the “Sel cat. S” value was “++ (++ means a Ki(cathepsin S)/Ki(calpain) ratio of ≧100)”. With `NC(=O)C(=O)C(Cc1ccccc1)NC(=O)c1cccnc1-n1cc(-c2ccccc2F)cn1` (stereo not drawn) [Example 104, N-[3-Amino-2,3-dioxo-1-(phenylmethyl)propyl]-2-[4-(2-fluorophenyl)-1H-pyrazol-1-yl]pyridine-3-carboxamide] the “Sel cat. S” value was “+ (+ means 50≦Ki(cathepsin S)/Ki(calpain)<100)”.

— patent US9139557B2, “Carboxamide compounds and their use as calpain inhibitors” (Abbott GmbH & Co. KG, priority 2006, dated 2015)
